3 substances from US11174287B2, “Central nervous system homing peptides and uses thereof” (UNIVERSITY OF MARYLAND, BALTIMORE, priority 2017, dated 2021) can be followed below.

The test system of assay [1] is inflamed central nervous system (spinal cord, brain) of EAE mice. The assay is described as follows: NIR imaging of brain and spinal cord after i.v. injection of Cy7-labeled peptide (IVIS Xenogen). Type of assay: in vivo, mouse. The conditions noted are these: for accumulation (NIR signal) in the spinal cord: perfused. As to the method:
The antigen was prepared by emulsifying the myelin oligodendrocyte glycoprotein (MOG) region of 35-55 peptide sequence with at least >98% purity based on mass spectrophotometry (CS Bio, CA, USA) with an equal volume of complete Freund's adjuvant (CFA) containing 5 mg/ml of heat killed desiccated M. tuberculosis-H37RA (Bacto, MI, USA). The suspension was thoroughly mixed to form a thick emulsion. Experimental autoimmune encephalomyelitis (EAE), which closely resembles human multiple sclerosis (MS) was induced in C57BL/6 mice by subcutaneous injection of 200 μg/MOG/mouse. In addition, 2 doses of 200-400 ng each of Pertussis toxin (Calbiochem, CA, USA) were administered i.p. after MOG injection at 0 and 48 hours.
Near Infrared (NIR) Cyanine 7 (Cy7) dye-labeled test peptide CRGGKRSSC (SEQ ID NO:14) or control peptide was injected into the tail vein of diseased (EAE) mice and naive (control) mice. The peptides were allowed to circulate for 24 hours. Thereafter, mice were euthanized, perfused extensively through the heart using PBS. Following that, the brain and spinal cord were removed and scanned for NIR imaging signals using IVIS Xenogen imaging System.

In assay [2] the test system is spleen, kidney, liver and lung tissue of normal mice. The assay is described as follows: Peptide overlay assay, FITC-labeled peptide binding in various organs of normal mice. Also on record: species or system mouse. The text has this: (§1) The peptide sequences were synthesized by Genscript (NJ, USA) with at least 95% purity. For fluorescent peptides, fluorescein isothiocyanate (FITC) dye was conjugated at the amino terminus of peptides. The excitation/emission wavelengths for FITC were 490/520 nm.

Assay [3] deals with spleen, kidney, liver and lung tissue of EAE mice. Description: Peptide overlay assay, FITC-labeled peptide binding to various organs of EAE mice. Also noted: species or system mouse.
Text: as §1

For assay [4], the system named is spinal cord and brain cerebellum of EAE mice. The assay is described as follows: FITC-labeled peptide binding to spinal cord and brain cerebellum. Also on record: species or system mouse. The note with it: compared to scrambled peptide CSGRRGKSC
Text: as §1

Ends that are not written are not given here.

Consider “KRSS-Cy7: Near Infrared cyanine 7 (Cy7) dye-labeled test peptide CRGGKRSSC (SEQ ID NO:14) (cysteine pairing not given here; also: Cy7 dye label, site not given here)”, for which the “NIR signal in the cerebellum” value in assay [1] (EAE mice versus control mice and control peptide, intensity relative to spinal cord, 24 hours) is recorded as “much lower in intensity”. The “accumulation (NIR signal) in the spinal cord” value in assay [1] (EAE mice, tail vein injection, 24 hours circulation) was “significantly higher accumulation”; in assay [1] (naive (control) mice, tail vein injection, 24 hours circulation), “barely showed any detectable signal”. For the same substance, the “NIR signal in the cerebrum” value in assay [1] (tail vein injection, 24 hours circulation) is “no signal was detected”.
Consider “CRAKGRDAC (cysteine pairing not given here; also: FITC label, site not given here) [CNS-homing peptide containing the RAK motif]”, for which the “binding of FITC-labeled peptide to spleen, kidney, liver and lung tissue” value in assay [2] is reported as “minimal binding”; in assay [3], “minimal binding except for lung”.
Take “CRGGKRSSC (cysteine pairing not given here; also: FITC label, site not given here) [CNS-homing peptide from CX7C phage library, denoted "KRSS"]”: the entries for the “binding of FITC-labeled peptide to spleen, kidney, liver and lung tissue” value in assay [2] and in assay [3] were “minimal binding except for spleen” and “minimal binding”, respectively. Moreover, the “homing when injected into the bloodstream” value in assay [1] (EAE mice versus normal mice) is “preferentially homed to inflamed spinal cord of EAE mice but not in normal mice”. Besides, the “binding of FITC-labeled peptide to spinal cord and cerebellum” value in assay [4] is “significantly higher binding”.
